Assays:
Experiment in all cases: relative viability (nuclei count vs DMSO), 5 days (fraction); higher = more cells survive
[1] = system: NCI-H358
In short: (§1)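 Lung cancer cell lines, seeded in 1536-well plates, were treated the following day by pin tool with a single drug or with five library-drug doses (not always all listed) in √10 steps on top of a fixed anchor-drug dose. Cells were fixed and nuclei stained in one step after 5 days, and nuclei were counted. Relative viability is the nuclei count for treated wells divided by that for vehicle wells, reported as medians of duplicate plates.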

[2] = system: NCI-H2085
In short: as §1

[3] = system: NCI-H650
In short: as §1

[4] = system: COR-L23
In short: as §1

[5] = system: NCI-H1993
In short: as §1

[6] = system: NCI-H1915
In short: as §1

[7] = system: NCI-H2347
In short: as §1

[8] = system: EPLC-272H
In short: as §1

[9] = system: SW 1573
In short: as §1

[10] = system: PC-14
In short: as §1

[11] = system: NCI-H1651
In short: as §1

[12] = system: NCI-H2126
In short: as §1

[13] = system: LU99A
In short: as §1

[14] = system: NCI-H838
In short: as §1

[15] = system: HCC-44
In short: as §1

[16] = system: HARA
In short: as §1

[17] = system: HOP-62
In short: as §1

[18] = system: NCI-H2023
In short: as §1

[19] = system: LC-2-ad
In short: as §1

[20] = system: UMC-11
In short: as §1

[21] = system: NCI-H1355
In short: as §1

[22] = system: HCC-15
In short: as §1

Compound: O=c1cc(N2CCOCC2)oc2c(-c3cccc4c3sc3ccccc34)cccc12 + CC(=O)Nc1cccc(-n2c(=O)n(C3CC3)c(=O)c3c(Nc4ccc(I)cc4F)n(C)c(=O)c(C)c32)c1 [Trametinib] (partner 0.02 µM)
- relative viability ([1]; first compound 0.01 µM): 0.133
- relative viability ([1]; first compound 0.03162 µM): 0.14
- relative viability ([1]; first compound 0.1 µM): 0.115
- relative viability ([1]; first compound 0.3162 µM): 0.128
- relative viability ([1]; first compound 1 µM): 0.165
- relative viability ([2]; first compound 0.01 µM): 0.515
- relative viability ([2]; first compound 0.03162 µM): 0.541
- relative viability ([2]; first compound 0.1 µM): 0.515
- relative viability ([2]; first compound 0.3162 µM): 0.577
- relative viability ([2]; first compound 1 µM): 0.454
- relative viability ([3]; first compound 0.01 µM): 1.05
- relative viability ([3]; first compound 0.03162 µM): 1.1
- relative viability ([3]; first compound 0.3162 µM): 0.939
- relative viability ([3]; first compound 1 µM): 1.04
- relative viability ([4]; first compound 0.01 µM): 0.617
- relative viability ([4]; first compound 0.03162 µM): 0.614
- relative viability ([4]; first compound 0.1 µM): 0.552
- relative viability ([4]; first compound 0.3162 µM): 0.633
- relative viability ([4]; first compound 1 µM): 0.655
- relative viability ([5]; first compound 0.01 µM): 0.507
- relative viability ([5]; first compound 0.03162 µM): 0.601
- relative viability ([5]; first compound 0.1 µM): 0.507
- relative viability ([5]; first compound 0.3162 µM): 0.407
- relative viability ([5]; first compound 1 µM): 0.516
- relative viability ([6]; first compound 0.01 µM): 0.32
- relative viability ([6]; first compound 0.03162 µM): 0.32
- relative viability ([6]; first compound 0.1 µM): 0.299
- relative viability ([6]; first compound 0.3162 µM): 0.3
- relative viability ([6]; first compound 1 µM): 0.3
- relative viability ([7]; first compound 0.01 µM): 0.263
- relative viability ([7]; first compound 0.03162 µM): 0.287
- relative viability ([7]; first compound 0.1 µM): 0.269
- relative viability ([7]; first compound 0.3162 µM): 0.309
- relative viability ([7]; first compound 1 µM): 0.229
- relative viability ([8]; first compound 0.01 µM): 0.301
- relative viability ([8]; first compound 0.03162 µM): 0.285
- relative viability ([8]; first compound 0.1 µM): 0.333
- relative viability ([8]; first compound 0.3162 µM): 0.284
- relative viability ([8]; first compound 1 µM): 0.279
- relative viability ([9]; first compound 0.01 µM): 0.501
- relative viability ([9]; first compound 0.03162 µM): 0.594
- relative viability ([9]; first compound 0.1 µM): 0.585
- relative viability ([9]; first compound 0.3162 µM): 0.603
- relative viability ([9]; first compound 1 µM): 0.501
- relative viability ([10]; first compound 0.01 µM): 0.843
- relative viability ([10]; first compound 0.03162 µM): 0.744
- relative viability ([10]; first compound 0.1 µM): 0.745
- relative viability ([10]; first compound 0.3162 µM): 0.775
- relative viability ([10]; first compound 1 µM): 0.832
- relative viability ([11]; first compound 0.01 µM): 0.816
- relative viability ([11]; first compound 0.03162 µM): 0.818
- relative viability ([11]; first compound 0.1 µM): 0.817
- relative viability ([11]; first compound 0.3162 µM): 0.819
- relative viability ([11]; first compound 1 µM): 0.871
- relative viability ([12]; first compound 0.01 µM): 0.543
- relative viability ([12]; first compound 0.03162 µM): 0.52
- relative viability ([12]; first compound 0.1 µM): 0.54
- relative viability ([12]; first compound 0.3162 µM): 0.567
- relative viability ([12]; first compound 1 µM): 0.569
- relative viability ([13]; first compound 0.01 µM): 0.561
- relative viability ([13]; first compound 0.03162 µM): 0.576
- relative viability ([13]; first compound 0.1 µM): 0.562
- relative viability ([13]; first compound 0.3162 µM): 0.501
- relative viability ([13]; first compound 1 µM): 0.541
- relative viability ([14]; first compound 0.01 µM): 0.594
- relative viability ([14]; first compound 0.03162 µM): 0.557
- relative viability ([14]; first compound 0.1 µM): 0.481
- relative viability ([14]; first compound 0.3162 µM): 0.469
- relative viability ([14]; first compound 1 µM): 0.442
- relative viability ([15]; first compound 0.01 µM): 1.04
- relative viability ([15]; first compound 0.03162 µM): 1.06
- relative viability ([15]; first compound 0.1 µM): 1.02
- relative viability ([15]; first compound 0.3162 µM): 1.04
- relative viability ([15]; first compound 1 µM): 1.03
- relative viability ([16]; first compound 0.01 µM): 0.377
- relative viability ([16]; first compound 0.03162 µM): 0.828
- relative viability ([16]; first compound 0.1 µM): 0.688
- relative viability ([16]; first compound 0.3162 µM): 0.621
- relative viability ([16]; first compound 1 µM): 0.649
- relative viability ([17]; first compound 0.01 µM): 0.379
- relative viability ([17]; first compound 0.03162 µM): 0.384
- relative viability ([17]; first compound 0.1 µM): 0.358
- relative viability ([17]; first compound 0.3162 µM): 0.385
- relative viability ([17]; first compound 1 µM): 0.373
- relative viability ([18]; first compound 0.01 µM): 0.676
- relative viability ([18]; first compound 0.03162 µM): 0.574
- relative viability ([18]; first compound 0.1 µM): 0.624
- relative viability ([18]; first compound 0.3162 µM): 0.601
- relative viability ([18]; first compound 1 µM): 0.396
- relative viability ([19]; first compound 0.01 µM): 0.982
- relative viability ([19]; first compound 0.03162 µM): 0.877
- relative viability ([19]; first compound 0.1 µM): 0.965
- relative viability ([19]; first compound 0.3162 µM): 0.899
- relative viability ([19]; first compound 1 µM): 0.918
- relative viability ([20]; first compound 0.01 µM): 0.734
- relative viability ([20]; first compound 0.03162 µM): 0.741
- relative viability ([20]; first compound 0.1 µM): 0.773
- relative viability ([20]; first compound 0.3162 µM): 0.756
- relative viability ([20]; first compound 1 µM): 0.832
- relative viability ([21]; first compound 0.01 µM): 0.435
- relative viability ([21]; first compound 0.03162 µM): 0.435
- relative viability ([21]; first compound 0.1 µM): 0.435
- relative viability ([21]; first compound 0.3162 µM): 0.409
- relative viability ([21]; first compound 1 µM): 0.399
- relative viability ([22]; first compound 0.01 µM): 0.384
- relative viability ([22]; first compound 0.03162 µM): 0.388
- relative viability ([22]; first compound 0.1 µM): 0.288
- relative viability ([22]; first compound 0.3162 µM): 0.368
- relative viability ([22]; first compound 1 µM): 0.364

From the supplement of paper PMC10307832
